Results on three molecules are retold here after PMC6801819, “Exogenous Iron Increases Fasciocidal Activity and Hepatocellular Toxicity of the Synthetic Endoperoxides OZ78 and MT04” (International Journal of Molecular Sciences, 2019).

One series relates to HepG2 cells. Kind of series: Adenylate kinase leakage (membrane integrity test). Type of series: cell-based, human. The following applies: 24 h, HepG2; for increase in AK release as compared to DMSO control / membrane integrity: 500 µM alone (OZ78, MT04: up to 500 µM); for release of AK, increase as compared to DMSO: combined treatment with Fe2+, concentration not given. The method, then: Stock solutions of the drugs tested were prepared in DMSO 100% (v/v).
In viability assays, HepG2 cells were treated with 0.1% Triton-X or 0.1% DMSO for positive or negative control, respectively.
The assay was used according to the protocol supplied by the manufacturer.

For a further series, the system named is NMRI mice. Kind of series: Liver toxicity study in mice (plasma AST, aPhos, bilirubin, liver histology). The series is classed as in vivo, mouse. The settings on record: for Histopathologic observation: liver 8 hours; for plasma alkaline phosphatase (aPhos) / plasma aspartate aminotransferase (AST) / total serum bilirubin: single oral dose 200-800 mg/kg, 8 h post-treatment; for hepatic toxicity in vivo (overall): single oral doses up to 800 mg/kg. The method, then:
All animal studies were carried out at the Swiss Tropical and Public Health Institute (Basel, Switzerland) and were approved by Swiss and cantonal authorities (permission: 2070). Female NMRI mice (age: 3–4 weeks, weight: ~20 g) were purchased from Harlan Laboratories (Horst, The Netherlands). Mice were kept in groups of 10 animals in macrolon-cages in environmentally controlled conditions (temperature: ~25 °C; humidity: ~70%; 12 h light/dark cycle) and acclimatized for one week. They had free access to water and rodent diet. For the in vivo studies AS, OZ78 or MT04 were suspended in 7% (v/v) Tween-80 and 3% (v/v) ethanol.
Since treatment of F. hepatica infections in animals is typically performed by a single oral dose, we performed a pilot study to find out the best time point to kill the mice at which we could observe hepatic toxicity after drug application. This time point was 8 h after drug application (data not shown).
In the final experiment, mice were treated with 200, 400, or 800 mg/kg AS, OZ78, or MT04 by oral gavage. Seven mice were left untreated for control measurements. According to the results of the pilot experiments, where we measured the highest increase in total serum bilirubin, AST or alkaline phosphatase 8 h post-treatment, mice were euthanized by CO2 8 h post-treatment, blood was collected and analyzed as described above. After blood collection, the liver was removed, carefully examined macroscopically, and gross lesions were recorded. Livers were then stored in formalin 10% (v/v) until fixation in 4% paraformaldehyde was performed. After embedding in paraffin, sections of 5 μm thickness were obtained, stained with hematoxylin and eosin, and examined using light microscopy.

The next series has as its system human liver microsomes. Kind of series: Metabolism in the presence of human liver microsomes. The series is classed as in vitro ADME. The settings on record: 10 µM, 2 hours; for parent substance metabolized: functional human liver microsomes, 37 °C. The method, then:
The metabolism of AS, MT04, and OZ78 was tested in the presence of human liver microsomes or heat-inactivated microsomes (70 °C for 20 min, referred to as control microsomes) at 37 °C. AS, MT04 or OZ78 (10 µM each) were added to 1.0 mL of reaction mixture consisting of microsomes ([…]), an NADPH regenerating system, and PBS buffer, pH 7.4. Adding the drugs started the reaction. Aliquots of 100 µL were transferred into Eppendorf tubes after 0, 15, 30, 60, 120 min. The reaction was stopped by adding 300 µL methanol. The samples were then vortexed and centrifuged at 3000 g for 30 min. Supernatants were taken for LC-MS analysis.
LC-MS/MS measurements for AS were performed as described recently. Briefly, sample measurements were done with a high-performance liquid chromatography (HPLC) system (Shimadzu, Kyoto, Japan) connected to an API 365 triple-quadrupole mass spectrometer (PE Biosystems, Foster City, CA, USA) with a turbo ion spray interface. AS was detected in positive ionization mode by selected reaction monitoring (SRM) with a transition of 267.4→163.0. For analyte separation, a reversed phase column was used (2.1 × 10 mm guard cartridge (3 μm) connected to a 2.1 × 20 mm Atlantis T3 3 μm analytical column (Waters, Milford, MA, USA)). A gradient was used (mobile phase A: 5 mM ammonium formiate plus 0.15% (v/v) formic acid in ultra-pure water, mobile phase B: 0.15% (v/v) formic acid in acetonitrile) at a flow rate of 0.3 mL/min.
The analysis of MT04 and OZ78 [42] was conducted using the same system as described for AS. A phenomenex C8 (50mm × 2.00mm, 5µm, Brechbühler AG, Schlieren, Switzerland) was used for chromatographic separation with a gradient (mobile A: 5 mM ammonium formiate in water and mobile B: acetonitrile) at a flow rate of 0.3 mL/min. MS was conducted in negative ionization mode. For OZ78 and MT04 a mass of 321.4 and 337.4, respectively, was detected.
A general note: Microsomes from liver hold many membrane-bound enzymes, among them those of drug oxidation.

Series [1] deals with complex I of the mitochondrial electron transport chain. Kind of series: High-resolution respirometry, glutamate/malate (complex I). Type of series: cell-based, human. The settings on record: AS 100 µM, OZ78 500 µM, MT04 500 µM, 24 h, permeabilized HepG2, vs DMSO. On the procedure: After incubation with different drugs for 24 h, HepG2 cells were trypsinized and resuspended in DMEM with 10% fetal calf serum (FCS) and then centrifuged for 5 min (180× g). Cells were resuspended in MiRo5 respiration buffer (110 mM sucrose, 0.5 mM ethylene glycol-bis(β-aminoethyl ether)-N,N,N′,N′-tetraacetic acid (EGTA), 3.0 mM MgCl2, 80 mM KCl, 60 mM K-lactobionate, 10 mM KH2PO4, 20 mM taurine, 20 mM Hepes, 1.0 g/L BSA, pH 7.1). Respiration rates were measured at 37 °C using a high-resolution oxygraph (Oxygraph-2k, Oroboros Instruments, Innsbruck, Austria). Respiration rates were calculated as the time derivative of oxygen concentration measured in the closed respirometer. The amplified signal was recorded in a computer with an online display of the calibrated oxygen concentration and oxygen flux (DatLab software for data acquisition and analysis; Oroboros Instruments). The mitochondrial complex activity was assessed by a standard titration protocol: first cells were permeabilized with digitonin (10 µg/1 million cells) for 5 min. Afterward, for complex I-dependent maximal respiration stimulation, substrates added were glutamate (10 mM) and malate (5 mM), which provide nicotinamide adenine dinucleotide (NADH) to the respiratory chain (complex I activation), followed by addition of ADP (2.5 mM) (state 3, maximal respiration). After a stable signal was reached and marked, rotenone (0.5 µM) was added to inhibit complex I, and then complex II-dependent respiration was stimulated by adding succinate (10 mM), which provides flavin adenine dinucleotide (FADH) to the respiratory chain (complex II activation, state 3). Afterward, complex III was inhibited by antimycin A (2.5 µM), and complex IV-dependent respiration was measured by adding ascorbate (2 mM) and N,N,N′,N′-tetramethyl-p-phenylendiamine (TMPD, 0.5 mM). We confirmed the integrity of the outer mitochondrial membrane by showing the absence of a stimulatory effect of exogenous cytochrome c (10 µM) on respiration. Respiration was expressed as oxygen consumption per 5 × 10^5 cells.

As for `C[C@H]1[C@H](OC(=O)CCC(=O)O)O[C@@H]2O[C@@]3(C)CC[C@H]4[C@H](C)CC[C@@H]1[C@@]24OO3` [AS, artesunate, reference compound], in the series with HepG2 cells (100 µM + Fe2+), the “membrane leakage (AK release) as compared to DMSO control” value worked out at 320%. Also, the “increase in AK release as compared to DMSO control” value in the series on HepG2 cells (100 µM alone) was determined as 190%. The “increase in AK release as compared to DMSO control / membrane integrity” value (shortened to “increase … to DMSO control / membrane integrity”) with HepG2 cells is recorded as 270%. Besides, the Histopathologic observation entry is “No lesions” with NMRI mice (200 mg/kg oral, mouse 1); “No lesions” with NMRI mice (200 mg/kg oral, mouse 2); “No lesions” in the series with NMRI mice (200 mg/kg oral, mouse 3); “No lesions” in the series on NMRI mice (400 mg/kg oral, mouse 1); “No lesions” in the series on NMRI mice (400 mg/kg oral, mouse 2); “Beginning nodular regeneration” in the series with NMRI mice (400 mg/kg oral, mouse 3). In addition, the Histopathologic observation entry is reported as “Steatosis” in the series with NMRI mice (800 mg/kg oral, mouse 1); “Small area of confluent necrosis” in the series on NMRI mice (800 mg/kg oral, mouse 2); “No lesions” in the series with NMRI mice (800 mg/kg oral, mouse 3). Moreover, the “liver histology, group summary” value is “not associated with liver injury” in the series on NMRI mice (mice, 200 mg/kg oral, 8 h); “one mouse was without lesions, one with steatosis, and one with confluent necrosis” in the series with NMRI mice (mice, 800 mg/kg oral, 8 h). Also, the “time of highest values of AST, aPhos and total serum bilirubin (pilot study)” value with NMRI mice (mice, single oral dose 400 mg/kg, sampled 2, 4, 8, 12, 24 h) amounted to 8 h. Besides, the “plasma alkaline phosphatase (aPhos)” value with NMRI mice (mice) is recorded as “did not increase”. Also, the “plasma aspartate aminotransferase (AST)” value in the series with NMRI mice (mice) is “moderately increased with escalating doses”. Besides, the total serum bilirubin result in the series on NMRI mice (mice) was “did not increase”. Further, the “liver lesions (pilot study)” value with NMRI mice (mouse, in vivo, po, 400 mg/kg) is on record as “no liver lesions were observed”. Also, the parent substance metabolized in the series on human liver microsomes is on record as 94%. Besides, in the series with human liver microsomes (heat-inactivated microsomes), the “degradation of parent substance” value is “no degradation was detected”. Also, the “inhibition of maximal ADP-stimulated respiration rate, glutamate + malate (complex I)” value (“inhibition” for short) in series [1] is 75%.

With `O=C(O)CC1CCC2(CC1)OOC1(OO2)C2CC3CC(C2)CC1C3` (stereo not drawn) [MT04], the “increase … to DMSO control / membrane integrity” value with HepG2 cells is reported as “did not impair membrane integrity”. In the series on HepG2 cells, the “release of AK, increase as compared to DMSO” value came to 200%. Also, the Histopathologic observation result with NMRI mice (200 mg/kg oral, mouse 1) is recorded as “No lesions”; in the series with NMRI mice (200 mg/kg oral, mouse 2), “No lesions”; with NMRI mice (200 mg/kg oral, mouse 3), “No lesions”; with NMRI mice (200 mg/kg oral, mouse 4), “Nuclear polymorphism”; in the series on NMRI mice (400 mg/kg oral, mouse 1) it was “Nuclear polymorphism”; in the series with NMRI mice (400 mg/kg oral, mouse 2) it was “Nuclear polymorphism”. In addition, the Histopathologic observation entry in the series with NMRI mice (400 mg/kg oral, mouse 3) is “No lesions”; in the series on NMRI mice (400 mg/kg oral, mouse 4), “No lesions”; in the series on NMRI mice (800 mg/kg oral, mouse 1), “No lesions”; in the series on NMRI mice (800 mg/kg oral, mouse 2), “Slight hydropic degeneration”; in the series with NMRI mice (800 mg/kg oral, mouse 3), “Slight hydropic degeneration and nuclear polymorphism”; with NMRI mice (800 mg/kg oral, mouse 4), “Slight hydropic degeneration and nuclear polymorphism”. In addition, the “AST values of single mice” value in the series on NMRI mice (mice, 200 mg/kg oral, 8 h) is reported as “Two mice treated with 200 mg/kg MT04 had highly elevated AST values”. Further, the “liver histology, group summary” value was “no pathologic liver histology” in the series on NMRI mice (mice, 400 mg/kg oral, 8 h) and “Three out of four mice treated with 800 mg/kg MT04 presented hydropic degeneration” in the series with NMRI mice (mice, 800 mg/kg oral, 8 h). The “plasma aspartate aminotransferase (AST)” value in the series on NMRI mice (mice) is listed as “did not affect AST levels in a concentration-dependent fashion”. The “hepatic toxicity in vivo (overall)” value in the series on NMRI mice (mice, 8 h) was “no relevant hepatic toxicity”. The parent substance metabolized entry in the series on human liver microsomes is given as “did not show a decrease”. Also, the “inhibition” value in series [1] is 53%.

Turning to `O=C(O)C[C@H]1CC[C@]2(CC1)OOC1(O2)C2CC3CC(C2)CC1C3` (stereo partly drawn) [OZ78], in the series on HepG2 cells, the “increase … to DMSO control / membrane integrity” value is “did not impair membrane integrity”. For the same molecule, the “release of AK, increase as compared to DMSO” value with HepG2 cells is “did not”. Also, the Histopathologic observation entry was “No lesions” with NMRI mice (200 mg/kg oral, mouse 1); “Slight hydropic degeneration” in the series with NMRI mice (200 mg/kg oral, mouse 2); “Slight hydropic degeneration” in the series with NMRI mice (200 mg/kg oral, mouse 3); “No lesions” with NMRI mice (200 mg/kg oral, mouse 4); “Slight hydropic degeneration” in the series on NMRI mice (400 mg/kg oral, mouse 1); “Passive congestion” in the series with NMRI mice (400 mg/kg oral, mouse 2). The Histopathologic observation entry is listed as “Nuclear polymorphism” with NMRI mice (400 mg/kg oral, mouse 3); “Slight hydropic degeneration” in the series on NMRI mice (400 mg/kg oral, mouse 4); “Slight hydropic degeneration” with NMRI mice (800 mg/kg oral, mouse 1); “No lesions” with NMRI mice (800 mg/kg oral, mouse 2); “Passive congestion” in the series on NMRI mice (800 mg/kg oral, mouse 3); “Slight hydropic degeneration” with NMRI mice (800 mg/kg oral, mouse 4). Further, the “liver histology, group summary” value with NMRI mice (mice, 200 mg/kg oral, 8 h) was “two mice (out of four) with slight hydropic degeneration of hepatocytes”; in the series on NMRI mice (mice, 400 mg/kg oral, 8 h), “two mice (out of four) with slight hydropic degeneration of hepatocytes”; in the series on NMRI mice (mice, 800 mg/kg oral, 8 h), “two mice (out of four) with slight hydropic degeneration of hepatocytes”. Further, the “plasma alkaline phosphatase (aPhos)” value in the series with NMRI mice (mice) is reported as “in the normal range”. For the same molecule, the “plasma aspartate aminotransferase (AST)” value in the series on NMRI mice (mice) is “in the normal range”. Also, the total serum bilirubin entry with NMRI mice (mice) is on record as “in the normal range”. In addition, the “hepatic toxicity in vivo (overall)” value in the series on NMRI mice (mice, 8 h) is given as “no relevant hepatic toxicity”. The parent substance metabolized result in the series on human liver microsomes is reported as “did not show a decrease”. Also, in series [1], the “inhibition” value is recorded as “did not significantly impair mitochondrial function”.
